According to patent US4588525A, “Prodrug compounds for dermal application” (Molecular Biosystems, Inc., priority 1984, dated 1986):

How the values were obtained:
human lung fibroblasts = test: Inhibition of growth of human lung fibroblasts in culture; type: cell-based; conditions: for IC50: Homo sapiens, Fibroblast, growth inhibition 50%, usually 3-4 days, 10^4 cells/35 mm dish, Coulter counter, read-out: ID50 (the source's name)
Description: Drugs were evaluated by their ability to inhibit the growth of human lung fibroblasts in culture. Human lung fibroblasts were grown in Eagle's Minimal Essential Media (EMEM) which contained 10% fetal calf serum, 1X non-essential amino acids, and 250 units penicillin and 250 μg streptomycin/ml. Stock cultures of the cells were grown on 100 mm culture plates. For testing purposes, cells were removed from the stock plates with 3 mls trypsin/versene and after appropriate dilution in the culture medium were plated onto 35 mm dishes. Typically, cells were subcultured at 10^4 cells/35 mm dish in 1.5 mls of medium and allowed to attach for 24 hours before the addition of drugs. Triplicate plates were treated with drugs over a wide concentration range. In some cases, it was necessary to dissolve stock solutions of the drugs with 50% ethanol. In such cases, appropriate controls were included to assure that the ethanol had no adverse effects. In all cases, untreated triplicate control plates were employed in order to determine the cell population at the time of drug addition and at the time of experiment ccmpletion (usual 3-4 days). The number of cells on the test and control plates was determined by first removing the medium by aspiration followed by gentle washing with 1 ml phosphate buffered saline. Trypsin/versene (0.5 ml) was then added and the plates incubated at 37° C. for up to 15 minutes or until the cells became detached. One milliliter of EMEM which contained 1X non-essential amino acids was then added in order to neutralize the action of trypsin. The cells were then diluted into ISOTON II (Curtin Matheson Scientific, Houston, Tex.) and counted on a Coulter counter (Coulter Electronics, Hialeah, Fla.) according to the Coulter counter owner's manual.

cellular enzymes = test: Conversion by cellular enzymes to active 6-aminonicotinamide (interpretation of Table A); type: cell-based, human
Excerpt: Such cleavages might be exploited to retain local activity but to eliminate systemic toxicity.

[1] = in vivo; cited from earlier work
[2] = topical, unless accompanied by oral nicotinamide; cited from earlier work
cancer = conditions: use questionable due to the CNS side effects; cited from earlier work

Row | SMILES | IC50 (human lung fibroblasts) | further results
1 | CCCCOC(=O)CCC(=O)Nc1ccc(C(N)=O)cn1 [6-Aminonicotinamide-N^6 --succinate butyl ester] | 20 µM | –
2 | CCOC(=O)CCC(=O)Nc1ccc(C(N)=O)cn1 [6-Aminonicotinamide-N^6 --succinate ethyl ester] | 5 µM | –
3 | COC(=O)CCC(=O)Nc1ccc(C(N)=O)cn1 [6-Aminonicotinamide-N^6 --succinate methyl ester] | 20 µM | –
4 | NC(=O)c1ccc(NC(=O)CCC(=O)N2CCCCC2)nc1 [6-Aminonicotinamide-N^6-succinyl piperidate] | – | conversion by cellular enzymes to active 6-aminonicotinamide (cellular enzymes): readily converted; efficiency of conversion compared with the other alkyl or ester analogues (cellular enzymes): more efficient
5 | NC(=O)c1ccc(NC(=O)CCC(=O)O)nc1 [6-Aminonicotinamide-N^6 --succinic acid, 6-aminonicotinamide-N^6-succinic acid] | 2000 µM | activity (inhibition of cell growth), in words (human lung fibroblasts; interpretation of Table A): essentially inactive
6 | NC(=O)c1ccc(NC(=O)CCC(=O)N2CCOCC2)nc1 [6-Aminonicotinamide-N^6-succinylmorpholidate] | – | conversion by cellular enzymes to active 6-aminonicotinamide (cellular enzymes): readily converted; efficiency of conversion compared with the other alkyl or ester analogues (cellular enzymes): more efficient
7 | NC(=O)c1ccc(N)nc1 [6-Aminonicotinamide, 6-aminonicotinamide] | 2 µM | effectiveness against psoriasis compared with methotrexate [1]: more effective against psoriasis than methotrexate; central nervous system toxicity (CNS) [2]: a central nervous system toxicity (CNS) may result; anti-cancer activity (cancer): anti-cancer activity
8 | CCOC(=O)CCCCC(=O)Nc1ccc(C(N)=O)cn1 [6-Aminonicotinamide-N^6 --apidic acid ethyl ester] | 30 µM | –
9 | CCCCCCC(=O)Nc1ccc(C(N)=O)cn1 [N^6 --heptanoyl-6-aminonicotinamide] | 20 µM | –
10 | CCCCCCOC(=O)CCC(=O)Nc1ccc(C(N)=O)cn1 [6-Aminonicotinamide-N^6 --succinate hexyl ester] | 20 µM | –
